IC50 data for 4 compounds are collected here from ChEMBL document CHEMBL1777701, “Glucosides with cyclic diarylpolynoid as novel C-aryl glucoside SGLT2 inhibitors” (Bioorg Med Chem Lett, 2011).

This assay concerns the target T1, Sodium/glucose cotransporter 2 (Homo sapiens, UniProt P31639).
T1 sequence (P31639 whole entry): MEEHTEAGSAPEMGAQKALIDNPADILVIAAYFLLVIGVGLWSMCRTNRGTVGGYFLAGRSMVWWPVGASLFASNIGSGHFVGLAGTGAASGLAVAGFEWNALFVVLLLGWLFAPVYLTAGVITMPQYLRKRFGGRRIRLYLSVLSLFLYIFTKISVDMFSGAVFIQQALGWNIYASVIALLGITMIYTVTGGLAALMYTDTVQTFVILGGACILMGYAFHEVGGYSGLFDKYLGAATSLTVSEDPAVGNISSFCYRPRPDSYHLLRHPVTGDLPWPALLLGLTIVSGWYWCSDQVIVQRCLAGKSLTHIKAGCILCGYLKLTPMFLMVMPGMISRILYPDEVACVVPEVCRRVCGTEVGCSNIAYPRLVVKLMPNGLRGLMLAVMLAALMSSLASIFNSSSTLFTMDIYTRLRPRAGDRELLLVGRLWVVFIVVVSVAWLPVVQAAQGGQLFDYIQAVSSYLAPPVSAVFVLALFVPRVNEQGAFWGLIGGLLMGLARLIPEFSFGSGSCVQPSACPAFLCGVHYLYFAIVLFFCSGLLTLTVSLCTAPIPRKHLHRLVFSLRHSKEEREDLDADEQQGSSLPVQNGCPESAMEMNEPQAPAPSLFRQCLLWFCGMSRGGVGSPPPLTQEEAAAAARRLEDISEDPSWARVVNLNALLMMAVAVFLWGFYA
Put plainly: Inhibition of human SGLT2 expressed in CHO cells using methyl-alpha-D-glucopyranoside by liquid scintillation counting. The class given is cell-based.

Turning to `OC[C@H]1O[C@@H](c2ccc3c(c2)Cc2ccc(cc2)OC/C=C/CCC3)[C@H](O)[C@@H](O)[C@@H]1O`, half-maximal inhibition (IC50) required 89.6 nM.

Take `OC[C@H]1O[C@@H](c2ccc3c(c2)Cc2ccc(cc2)OC/C=C/CCCC3)[C@H](O)[C@@H](O)[C@@H]1O`: the 50% inhibitory concentration (IC50) (in general, the concentration that inhibits the measured activity by half) was 103 nM.

Compound `OC[C@H]1O[C@@H](c2ccc3c(c2)Cc2ccc(cc2)OCCCCCC3)[C@H](O)[C@@H](O)[C@@H]1O` came in with an IC50 of 81.9 nM.

In the case of `OC[C@H]1O[C@@H](c2ccc3c(c2)Cc2ccc(cc2)OCCCCCCC3)[C@H](O)[C@@H](O)[C@@H]1O`, the IC50 stood at 99.7 nM.
